Results as given in the NIST ThermoML archive (doi:10.1016/j.tca.2016.09.005).
± gives the expanded uncertainty stated by the source.

Test: xn = mol fraction of the nth substance listed
Settings: 100 kPa, Liquid; for speed of sound: Frequency=3 MHz, Sing-around technique in a fixed-path interferometer; for mass density: Vibrating tube method

SMILES: OCCCO [propan-1,3-diol] + CCO
- speed of sound (283.15 K, x2 = 0): 1659.5 ± 2.6 m/s
- speed of sound (283.15 K, x2 = 0.05): 1642.4 ± 2.6 m/s
- speed of sound (283.15 K, x2 = 0.1): 1623.9 ± 2.6 m/s
- speed of sound (283.15 K, x2 = 0.15): 1605.2 ± 2.5 m/s
- speed of sound (283.15 K, x2 = 0.2): 1585.7 ± 2.5 m/s
- speed of sound (283.15 K, x2 = 0.2499): 1565.3 ± 2.5 m/s
- speed of sound (283.15 K, x2 = 0.3004): 1544.3 ± 2.4 m/s
- speed of sound (283.15 K, x2 = 0.3502): 1523 ± 2.4 m/s
- speed of sound (283.15 K, x2 = 0.4): 1501 ± 2.3 m/s
- speed of sound (283.15 K, x2 = 0.4501): 1478.2 ± 2.3 m/s
- speed of sound (283.15 K, x2 = 0.5004): 1454.4 ± 2.3 m/s
- speed of sound (283.15 K, x2 = 0.5501): 1431.2 ± 2.2 m/s
- speed of sound (283.15 K, x2 = 0.6001): 1406.4 ± 2.2 m/s
- speed of sound (283.15 K, x2 = 0.65): 1382.1 ± 2.2 m/s
- speed of sound (283.15 K, x2 = 0.7): 1356.6 ± 2.1 m/s
- speed of sound (283.15 K, x2 = 0.7503): 1331.1 ± 2.1 m/s
- speed of sound (283.15 K, x2 = 0.8001): 1304.9 ± 2.1 m/s
- speed of sound (283.15 K, x2 = 0.8502): 1278.5 ± 2 m/s
- speed of sound (283.15 K, x2 = 0.9): 1252.1 ± 2 m/s
- speed of sound (283.15 K, x2 = 0.95): 1225.1 ± 2 m/s
- mass density (283.15 K, x2 = 0): 1058.85 ± 1.3 kg/m3
- mass density (283.15 K, x2 = 0.05): 1049.7 ± 1.2 kg/m3
- mass density (283.15 K, x2 = 0.1): 1040.25 ± 1.2 kg/m3
- mass density (283.15 K, x2 = 0.15): 1030.34 ± 1.1 kg/m3
- mass density (283.15 K, x2 = 0.2): 1020.03 ± 1.1 kg/m3
- mass density (283.15 K, x2 = 0.2499): 1009.63 ± 1.1 kg/m3
- mass density (283.15 K, x2 = 0.3004): 998.62 ± 1.1 kg/m3
- mass density (283.15 K, x2 = 0.3502): 987.34 ± 1 kg/m3
- mass density (283.15 K, x2 = 0.4): 975.76 ± 1 kg/m3
- mass density (283.15 K, x2 = 0.4501): 963.57 ± 1 kg/m3
- mass density (283.15 K, x2 = 0.5004): 950.95 ± 1 kg/m3
- mass density (283.15 K, x2 = 0.5501): 938.39 ± 0.99 kg/m3
- mass density (283.15 K, x2 = 0.6001): 924.91 ± 0.98 kg/m3
- mass density (283.15 K, x2 = 0.65): 911.17 ± 0.97 kg/m3
- mass density (283.15 K, x2 = 0.7): 896.69 ± 0.96 kg/m3
- mass density (283.15 K, x2 = 0.7503): 881.71 ± 0.96 kg/m3
- mass density (283.15 K, x2 = 0.8001): 866.31 ± 0.95 kg/m3
- mass density (283.15 K, x2 = 0.8502): 850.07 ± 0.95 kg/m3
- mass density (283.15 K, x2 = 0.9): 833.71 ± 0.95 kg/m3
- mass density (283.15 K, x2 = 0.95): 816.56 ± 0.95 kg/m3
- speed of sound (293.15 K, x2 = 0): 1636.3 ± 2.6 m/s
- speed of sound (293.15 K, x2 = 0.05): 1618.9 ± 2.6 m/s
- speed of sound (293.15 K, x2 = 0.1): 1600.1 ± 2.6 m/s
- speed of sound (293.15 K, x2 = 0.15): 1580.9 ± 2.5 m/s
- speed of sound (293.15 K, x2 = 0.2): 1560.9 ± 2.5 m/s
- speed of sound (293.15 K, x2 = 0.2499): 1540.2 ± 2.4 m/s
- speed of sound (293.15 K, x2 = 0.3004): 1518.7 ± 2.4 m/s
- speed of sound (293.15 K, x2 = 0.3502): 1496.8 ± 2.4 m/s
- speed of sound (293.15 K, x2 = 0.4): 1474.2 ± 2.3 m/s
- speed of sound (293.15 K, x2 = 0.4501): 1450.8 ± 2.3 m/s
- speed of sound (293.15 K, x2 = 0.5004): 1426.5 ± 2.3 m/s
- speed of sound (293.15 K, x2 = 0.5501): 1402.8 ± 2.2 m/s
- speed of sound (293.15 K, x2 = 0.6001): 1377.6 ± 2.2 m/s
- speed of sound (293.15 K, x2 = 0.65): 1352.5 ± 2.2 m/s
- speed of sound (293.15 K, x2 = 0.7): 1326.3 ± 2.1 m/s
- speed of sound (293.15 K, x2 = 0.7503): 1300.1 ± 2.1 m/s
- speed of sound (293.15 K, x2 = 0.8001): 1273.3 ± 2.1 m/s
- speed of sound (293.15 K, x2 = 0.8502): 1246.2 ± 2 m/s
- speed of sound (293.15 K, x2 = 0.9): 1219 ± 2 m/s
- speed of sound (293.15 K, x2 = 0.95): 1191.3 ± 2 m/s
- mass density (293.15 K, x2 = 0): 1052.61 ± 1.2 kg/m3
- mass density (293.15 K, x2 = 0.05): 1043.39 ± 1.2 kg/m3
- mass density (293.15 K, x2 = 0.1): 1033.87 ± 1.2 kg/m3
- mass density (293.15 K, x2 = 0.15): 1023.87 ± 1.1 kg/m3
- mass density (293.15 K, x2 = 0.2): 1013.44 ± 1.1 kg/m3
- mass density (293.15 K, x2 = 0.2499): 1003 ± 1.1 kg/m3
- mass density (293.15 K, x2 = 0.3004): 991.91 ± 1.1 kg/m3
- mass density (293.15 K, x2 = 0.3502): 980.54 ± 1 kg/m3
- mass density (293.15 K, x2 = 0.4): 968.84 ± 1 kg/m3
- mass density (293.15 K, x2 = 0.4501): 956.56 ± 1 kg/m3
- mass density (293.15 K, x2 = 0.5004): 943.82 ± 1 kg/m3
- mass density (293.15 K, x2 = 0.5501): 931.16 ± 0.99 kg/m3
- mass density (293.15 K, x2 = 0.6001): 917.56 ± 0.98 kg/m3
- mass density (293.15 K, x2 = 0.65): 903.69 ± 0.97 kg/m3
- mass density (293.15 K, x2 = 0.7): 889.09 ± 0.96 kg/m3
- mass density (293.15 K, x2 = 0.7503): 873.96 ± 0.96 kg/m3
- mass density (293.15 K, x2 = 0.8001): 858.42 ± 0.95 kg/m3
- mass density (293.15 K, x2 = 0.8502): 842.04 ± 0.95 kg/m3
- mass density (293.15 K, x2 = 0.9): 825.51 ± 0.95 kg/m3
- mass density (293.15 K, x2 = 0.95): 808.22 ± 0.95 kg/m3
